# According to ChEMBL document CHEMBL3046850, “In vivo antifilarial activity of some cyclic and acylic alcohols” (2011):
# Active and inactive are the calls of the source. The calls are words filed in the database; no cut-off is given here.
# Key:
# [1] = test system: Acanthocheilonema viteae; assay: Antifilarial activity against Acanthocheilonema viteae infected Mastomys coucha assessed as microfilariacidal activity at 50 mg/kg, ip for 5 days relative to control; format: functional
# [2] = test system: Acanthocheilonema viteae; assay: Antifilarial activity against Acanthocheilonema viteae infected Mastomys coucha assessed as sterilization of female worms at 50 mg/kg, ip for 5 days relative to control; format: functional, organism-based; set-up: dose 50 mg/kg
# [3] = test system: Acanthocheilonema viteae; assay: Antifilarial activity against Acanthocheilonema viteae infected Mastomys coucha assessed as macrofilariacidal activity at 50 mg/kg, ip for 5 days relative to control; format: functional
# [4] = test system: Acanthocheilonema viteae; assay: Antifilarial activity against Acanthocheilonema viteae infected Mastomys coucha assessed as macrofilariacidal activity at 200 mg/kg, ip for 5 days relative to control; format: functional; settings: route intraperitoneal
# [5] = test system: Acanthocheilonema viteae; assay: Antifilarial activity against Acanthocheilonema viteae infected Mastomys coucha assessed as sterilization of female worms at 100 mg/kg, po for 5 days relative to control; format: functional
Compound,Activity [1],Activity [2],Activity ([1]; route intraperitoneal) [%],Activity [3],Activity [4] [%],Activity [5] [%],Activity ([3]; route intraperitoneal) [%]
CN1CCN(C2CCCCC2O)CC1 (stereo not given),inactive,inactive,–,–,–,–,–
CCN(CC)C(=O)N1CCN(C)CC1 [DIETHYLCARBAMAZINE],–,inactive,90,inactive,–,–,–
CC(O)N1CCCCC1C (stereo not given),inactive,inactive,–,inactive,–,–,–
CC(=O)OC1CCCCC1N1CCCCC1 (stereo not given),inactive,inactive,–,inactive,–,–,–
CC(=O)OC1CCCCC1Nc1ccccc1 (stereo not given),inactive,inactive,–,inactive,–,–,–
CC(O)Nc1ccco1 (stereo not given),inactive,–,–,–,81.3,82,–
CC(=O)OC1CCCCC1N1CCN(C)CC1 (stereo not given),inactive,inactive,–,inactive,–,–,–
CC(=O)OC1CCCCC1N1CCOCC1 (stereo not given),inactive,inactive,–,inactive,–,–,–
OC1CCCCC1N1CCC(Cc2ccccc2)CC1 (stereo not given),inactive,inactive,–,inactive,–,–,–
CC(=O)OC1CCCCC1N1CCC(Cc2ccccc2)CC1 (stereo not given),inactive,inactive,–,inactive,–,–,–
OC1CCCCC1N1CCOCC1 (stereo not given),inactive,inactive,–,inactive,–,–,–
CC(=O)OC(C)N1CCCCC1C (stereo not given),inactive,inactive,–,inactive,–,–,–
CC(=O)OC(C)N1CCC(Cc2ccccc2)CC1 (stereo not given),inactive,inactive,–,–,83.4,–,–
CC(O)N1CCC(Cc2ccccc2)CC1 (stereo not given),inactive,inactive,–,inactive,–,–,–
OC1CCCCC1N1CCCCC1 (stereo not given),inactive,inactive,–,–,–,–,88.9
CC(=O)OC(C)Nc1ccco1 (stereo not given),inactive,inactive,–,inactive,–,–,–
OC1CCCCC1Nc1ccccc1 (stereo not given),inactive,inactive,–,inactive,–,–,–
